Test results as given in patent publication US8084431B2, “Method for inhibiting activation of macrophages, inhibiting formation of osteoclasts, inhibiting function of osteoclasts, and/or activating osteoblasts” (China Medical University, priority 2008, dated 2011).
Where two headings read alike, the source gives them in different places.

Experiments:
macrophages RAW 264.7 = test: Formation of osteoclasts from macrophages RAW 264.7 (RANKL, TRAP stain); format: cell-based; conditions: Mus musculus, RAW264.7, 120 h; 10 nM, RANKL 50 ng/ml, 5 days; read-out: inhibition percentage
Description: If macrophages RAW 264.7 are incubated in culture plates containing 50 ng/ml of differentiation inducer, RANKL, they usually differentiate into osteoclasts after 5 days. In Experiment H, various concentrations (0, 10, and 50 μM) of kinsenoside or 10 nM of estradiol were added into culture plates containing macrophages RAW 264.7, respectively, and the macrophages RAW 264.7 were incubated for 5 days. […] The number of osteoclasts was counted, and the inhibition percentage of the formation of osteoclasts was calculated with the following formula, and the result is shown in Table 11. Inhibition percentage=(the number of osteoclasts in the control group−the number of osteoclasts in the experimental group)/the number of osteoclasts in the control group×100%

myelocytes of rats = test: Formation of osteoclasts from rat myelocytes (RANKL + M-CSF, TRAP stain); format: cell-based, Wistar rats; conditions: Rattus norvegicus, Osteoclast, 216 h, 10 nM, 9 days
Description: Myelocytes were first prepared. Male Wistar rats with the body weight of 250 g to 300 g were used to prepare myelocytes. Under the condition of anaesthesia, the femurs of the rats were taken, and myelocytes were washed out with a phosphate buffer solution. […] After incubation for 9 days, monocytes in the marrow differentiated into osteoclasts. The osteoclasts were stained with a TRAP (tartrate-resistant acid phosphatase) stain reagent (Sigma, Louis, Mo., USA), and the number of the osteoclasts was calculated. Besides the same RANKL and M-CSF as the control group, various concentrations (0, 5, 25, 50, and 100 μM) of kinsenoside or 10 nM of estradiol (Wako, Japan) were added into culture plates, respectively. Then, rat myelocytes were incubated for 9 days, and the situation that the myelocytes differentiated into osteoclasts was observed. The percentage of the inhibition effect of kinsenoside and estradiol on the formation of osteoclasts was calculated with the following formula, and the result is shown in Table 9. Inhibition percentage (%)=(the number of osteoclasts of the control group−the number of osteoclasts of the experimental group)/the number of osteoclasts of the control group×100% In addition to the aforesaid RANKL, kinsenoside, and/or estradiol, the inhibitor of estradiol, Fulvestrant (Sigma, Louis, Mo., USA) (1 nM), was also added into culture plates. Then, rat myelocytes were incubated for 9 days, and the situation that the myelocytes differentiated into osteoclasts was observed. The percentage of the inhibition effect of kinsenoside on the formation of osteoclasts was calculated, and the result is shown in Table 9.

C[C@]12CC[C@@H]3c4ccc(O)cc4CC[C@H]3[C@@H]1CC[C@@H]2O [estradiol, reference compound]
inhibition at 0.01 µM (macrophages RAW 264.7): 61 ± 16% | inhibition at 0.01 µM (myelocytes of rats; with Fulvestrant 1 nM, read-out: inhibition percentage Experimental Group II): 24 ± 13.5% | inhibition at 0.01 µM (myelocytes of rats; without Fulvestrant, read-out: inhibition percentage Experimental Group I): 45.7 ± 10.5%
